Laboratory results reported in US20250136574A1, “SELECTIVE AGENTS TARGETING MYCOBACTERIUM TUBERCULOSIS” (priority 2022, published 2025).
Where two headings read alike, the source gives them in different places.

Assays:
Plasma stability, human = conditions: n = 1
[1] = Liver microsomal stability, human; conditions: human liver microsomes, n = 1
[2] = Liver microsomal stability, mouse; conditions: mouse liver microsomes, n = 1
PBS solubility = conditions: highest concentration with no detectable precipitate; phosphate-buffered saline
[3] = Human plasma protein binding; conditions: human, plasma
Plasma stability, mouse = conditions: n = 1
[4] = microsomes
[5] = microsomes; remark: listed apart in the source
in vitro = conditions: human, plasma
human plasma protein = assay: Human plasma protein binding; conditions: human plasma protein binding

Row | SMILES | plasma stability t1/2 (min), human (Plasma stability, human) | liver microsomal stability CLint (μL/min/mg), human [1] [µL/min/mg] | liver microsomal stability t1/2 (min), human [1] [min] | liver microsomal stability CLint (μL/min/mg), mouse [2] [µL/min/mg] | liver microsomal stability t1/2 (min), mouse [2] [min] | PBS solubility (PBS solubility) [µM] | fraction unbound [3] | plasma stability t1/2 (min), mouse (Plasma stability, mouse) | liver microsomal stability CLint (μL/min/mg), mouse [4] [µL/min/mg] | liver microsomal stability CLint (μL/min/mg), human [5] [µL/min/mg] | fraction unbound (in vitro) | plasma protein binding (human plasma protein) [%]
1 | CCCCCCC#Cc1cncc(-c2nnc(SCc3cc([N+](=O)[O-])cc([N+](=O)[O-])c3)n2C)c1 [drawing 140] | >480; >480 min | 357 | 3.9 | 287 | 4.8 | <1.6 | < 0.001 | >480; >480 min |  |  |  | 
2 | CCCCCCC#Cc1cncc(-c2nnc(SCc3ccc([N+](=O)[O-])o3)n2C2CC2)c1 [drawing 141] | 259 min |  | 1.9 |  | 2.5 | 3.1 |  | 238 min | 546 | 470 | < 0.001 | 
3 | CC(=O)CC(c1ccccc1)c1c(O)c2ccccc2oc1=O (centres unmarked) [warfarin] |  |  |  |  |  |  |  |  |  |  |  | >99.9
